We go through two compounds from patent US20140045824A1, “METHOD FOR PRODUCING COMPLEX CRYSTAL AND METHOD FOR SCREENING COMPLEX CRYSTAL” (priority 2011, published 2014).

What all share (assay type): physicochemical
A short description of series [1]: Cocrystal screening by slurry method (Comparative Examples 4-1 to 4-6), powder X-ray diffraction. The arrangement: key: A cocrystal was completely formed.; B: A mixture of a cocrystal and the host compound or guest compound was formed.; C: A cocrystal was not formed (a mixture of the host compound and the guest compound was formed).; —: A residue was not obtained. The following applies: host carbamazepine, room temperature 7 days; for Cocrystal formation, Comparative Example 4-3: slurry in tetrahydrofuran. The procedure: 3 mg (0.0127 mmoles) of carbamazepine and a guest compound shown in Table 4 in an equimolar amount (0.0127 mmoles) to carbamazepine were weighed and put into a glass container, to which was then added 60 μL of water. These were shaken at room temperature for 7 days, and the obtained residues were subjected to powder X-ray diffraction measurement. 3 mg (0.0127 mmoles) of carbamazepine and a guest compound shown in Table 4 in an equimolar amount (0.0127 mmoles) to carbamazepine were weighed and put into a glass container, to which was then added 60 μL of ethanol. These were shaken at room temperature for 7 days, and the obtained residues were subjected to powder X-ray diffraction measurement. 3 mg (0.0127 mmoles) of carbamazepine and a guest compound shown in Table 4 in an equimolar amount (0.0127 mmoles) to carbamazepine were weighed and put into a glass container, to which was then added 60 μL of tetrahydrofuran. These were shaken at room temperature for 7 days, and the obtained residues were subjected to powder X-ray diffraction measurement. 3 mg (0.0127 mmoles) of carbamazepine and a guest compound shown in Table 4 in an equimolar amount (0.0127 mmoles) to carbamazepine were weighed and put into a glass container, to which was then added 60 μL of toluene. These were shaken at room temperature for 7 days, and the obtained residues were subjected to powder X-ray diffraction measurement. 3 mg (0.0127 mmoles) of carbamazepine and a guest compound shown in Table 4 in an equimolar amount (0.0127 mmoles) to carbamazepine were weighed and put into a glass container, to which was then added 60 μL of ethyl acetate. These were shaken at room temperature for 7 days, and the obtained residues were subjected to powder X-ray diffraction measurement. 3 mg (0.0127 mmoles) of carbamazepine and a guest compound shown in Table 4 in an equimolar amount (0.0127 mmoles) to carbamazepine were weighed and put into a glass container, to which was then added 60 μL of acetone. These were shaken at room temperature for 7 days, and the obtained residues were subjected to powder X-ray diffraction measurement.

A short description of series [2]: Cocrystal screening by slurry method (Comparative Examples 1-1 to 1-6), powder X-ray diffraction. The arrangement: key to Cocrystal formation, Comparative Example 1* / Cocrystal formation, Comparative Example 1-1 / Cocrystal formation, Comparative Example 1-2 / Cocrystal formation, Comparative Example 1-3 / Cocrystal formation, Comparative Example 1-4 / Cocrystal formation, Comparative Example 1-5 / Cocrystal formation, Comparative Example 1-6: A cocrystal was completely formed.; B: A mixture of a cocrystal and the host compound or guest compound was formed.; C: A cocrystal was not formed (a mixture of the host compound and the guest compound was formed). The following applies: host theophylline; for Cocrystal formation, Comparative Example 1-6: slurry in acetone; for Cocrystal formation, Comparative Example 1-6 / Cocrystal formation, Comparative Example 1-2 / Cocrystal formation, Comparative Example 1-5 / Cocrystal formation, Comparative Example 1-3 / Cocrystal formation, Comparative Example 1-4 / Cocrystal formation, Comparative Example 1-1: room temperature 7 days; for Cocrystal formation, Comparative Example 1-2: slurry in ethanol; for Cocrystal formation, Comparative Example 1-5: slurry in ethyl acetate; for Cocrystal formation, Comparative Example 1-3: slurry in tetrahydrofuran; for Cocrystal formation, Comparative Example 1-4: slurry in toluene; for Cocrystal formation, Comparative Example 1*: slurry summary: A if a cocrystal was formed in any one of Comparative Examples 1-1 to 1-6. The protocol: 3 mg (0.0167 mmoles) of theophylline and a guest compound shown in Table 1 in an equimolar amount (0.0167 mmoles) to theophylline were weighed and put into a glass container, to which was then added 60 μL of water. These were shaken at room temperature for 7 days, and the obtained residues were subjected to powder X-ray diffraction measurement. 3 mg (0.0167 mmoles) of theophylline and a guest compound shown in Table I in an equimolar amount (0.0167 mmoles) to theophylline were weighed and put into a glass container, to which was then added 60 μL of ethanol. These were shaken at room temperature for 7 days, and the obtained residues were subjected to powder X-ray diffraction measurement. 3 mg (0.0167 mmoles) of theophylline and a guest compound shown in Table 1 in an equimolar amount (0.0167 mmoles) to theophylline were weighed and put into a glass container, to which was then added 60 μL of tetrahydrofuran. This was shaken at room temperature for 7 days, and the obtained residues were subjected to powder X-ray diffraction measurement. 3 mg (0.0167 mmoles) of theophylline and a guest compound shown in Table 1 in an equimolar amount (0.0167 mmoles) to theophylline were weighed and put into a glass container, to which was then added 60 μL of toluene. These were shaken at room temperature for 7 days, and the obtained residues were subjected to powder X-ray diffraction measurement. 3 mg (0.0167 mmoles) of theophylline and a guest compound shown in Table 1 in an equimolar amount (0.0167 mmoles) to theophylline were weighed and put into a glass container, to which was then added 60 μL of ethyl acetate. These were shaken at room temperature for 7 days, and the obtained residues were subjected to powder X-ray diffraction measurement. 3 mg (0.0167 mmoles) of theophylline and a guest compound shown in Table 1 in an equimolar amount (0.0167 mmoles) to theophylline were weighed and put into a glass container, to which was then added 60 μL of acetone. These were shaken at room temperature for 7 days, and the obtained residues were subjected to powder X-ray diffraction measurement.

Series [3] in a line: Cocrystal formation by heating under humidified condition without menthol (Comparative Example 7). The arrangement: key: A cocrystal was completely formed.; B: A mixture of a cocrystal and the host compound or guest compound was formed.; C: A cocrystal was not formed (a mixture of the host compound and the guest compound was formed). To be noted: host theophylline, no menthol, 80° C. and 90% RH. The protocol: About 30 mg (0.167 mmoles) of theophylline and […] of L(+)-arginine were weighed and put into a test tube and mixed using an agate mortar. […] 15 mg of this mixed powder was weighed and put into a test tube and heated for 6 and 21 hours, respectively in a thermo-hygrostat at 80° C. and 90% RH, and the obtained solids were subjected to powder X-ray diffraction measurement and thermal analysis.

Series [4] in a line: Cocrystal screening by heating method without menthol (Comparative Example 3). The arrangement: key: A cocrystal was completely formed.; B: A mixture of a cocrystal and the host compound or guest compound was formed.; C: A cocrystal was not formed (a mixture of the host compound and the guest compound was formed). To be noted: host theophylline, equimolar guest, no menthol, 4 hours at 80° C. The procedure:
3 mg (0.0167 mmoles) of theophylline and a guest compound shown in Table 1 in an equimolar amount (0.0167 mmoles) to theophylline were weighed and mixed using an agate mortar. At that time, particles having a large size to an extent that they could be distinguished through visual inspection were grinded on the agate mortar. 10 mg of this mixed powder was weighed and put into a test tube, followed by heating for 4 hours in an oven at 80° C. The obtained solid was subjected to powder X-ray diffraction measurement and thermal analysis.

Each structure is given as a SMILES string.

For the compound `N=C(N)NCCC[C@H](N)C(=O)O` [L(+)-Arginine], in series [1], the “Cocrystal formation, Comparative Example 4-3” value was “—”. In addition, in series [2], the “Cocrystal formation, Comparative Example 1-6” value is “C”; the “Cocrystal formation, Comparative Example 1-2” value is “C”; the “Cocrystal formation, Comparative Example 1-5” value is on record as “C”; the “Cocrystal formation, Comparative Example 1-3” value was “C”. In addition, in series [2], the “Cocrystal formation, Comparative Example 1-4” value was “C” and the “Cocrystal formation, Comparative Example 1*” value is recorded as “A”. In series [2] (slurry in water), the “Cocrystal with theophylline found, Comparative Example 1-1” value is listed as “could be found out” and the “Cocrystal formation, Comparative Example 1-1” value was “A”. The “Cocrystal formation, Comparative Example 7, Heating for 6 hours” value in series [3] (6 hours) is listed as “A”. The “Cocrystal formation, Comparative Example 7, Heating for 21 hours” value in series [3] (21 hours) was “A”. Further, in series [4], the “Cocrystal formation, Comparative Example 3” value is recorded as “C”.

With `O=C(O)CC(O)(CC(=O)O)C(=O)O` [Citric acid], in series [1] (slurry in ethyl acetate), the “Cocrystal formation, Comparative Example 4-5” value was “—”. Besides, in series [1], the “Cocrystal formation, Comparative Example 4-3” value was “—”. For the same compound, in series [2], the “Cocrystal formation, Comparative Example 1-6” value is “C”; the “Cocrystal formation, Comparative Example 1-2” value was “C”; the “Cocrystal formation, Comparative Example 1-5” value is given as “A”; the “Cocrystal formation, Comparative Example 1-3” value was “C”. In series [2], the “Cocrystal formation, Comparative Example 1-4” value is recorded as “C” and the “Cocrystal formation, Comparative Example 1*” value is given as “A”. Moreover, the “Cocrystal formation, Comparative Example 1-1” value in series [2] (slurry in water) is reported as “C”. The “Cocrystal formation, Comparative Example 3” value in series [4] was “B”.
